Legend:
[1] = system: HMCLs XG-5, XG-6, XG-7, XG-20 and LP1; settings: 0.5 μM, 7 days, 5 HMCLs
Method: Control cells were cultured in the same conditions without adding drug. […] Biotinylated cRNA was amplified with a double in vitro transcription and hybridized to the human U133 2.0 plus GeneChips, according to the manufacturer's instructions (Affymetrix, Santa Clara, Calif.). Fluorescence intensities were quantified and analyzed using the GECOS software (Affymetrix). Gene expression data were normalized with the MASS algorithm and analyzed with inventor's bioinformatics platforms-RAGE (http://[…] Amazonia (http://amazonia.[…] /) (36)-or SAM (Significance Analysis of Microarrays) software (37). The statistical significance of differences in overall survival between groups of patients was calculated by the log-rank test. Multivariate analysis was performed using the Cox proportional hazards model. Survival curves were plotted using the Kaplan-Meier method. All these analyses have been done with R.2.10.1 (http://www.r-project.org/) and bioconductor version 2.5. Gene annotation and networks were generated through the use of Ingenuity Pathways Analysis (Ingenuity® Systems, Redwood City, Calif.) (38).

[2] = Cell viability of HMCLs by trypan blue exclusion; format: cell-based, human; settings: human; for viability at 3 days, 0.5 μM: Day 3, mean ± SD; for viability at 7 days, 0.5 μM: Day 7, mean ± SD
Method: (§1) The human MM cell lines XG-5, XG-6, XG-7, XG-20 and LP1 were grown in RPMI 1640 supplemented with 10% fetal bovine serum and 2 ng/ml recombinant IL-6. Cells (2×10^5/mL) were treated either with 0.5 μmol/L 5-Aza-2′-deoxycytidine (decitabine) (Sigma, St. Louis, Mo.) for 7 days.

[3] = system: HMCLs; test: Cell viability of HMCLs by trypan blue exclusion; format: cell-based, human; settings: five HMCLs, 0.5 μM for 7 days
Method: as §1

[4] = LP1 multiple myeloma cells, LP1, 0.5 μM decitabine
[5] = XG-5 multiple myeloma cells, XG-5, 0.5 μM decitabine
[6] = XG-6 multiple myeloma cells, XG-6, 0.5 μM decitabine
[7] = XG-7 multiple myeloma cells, XG-7, 0.5 μM decitabine
[8] = XG-20 multiple myeloma cells, XG-20, 0.5 μM decitabine

## Nc1ncn([C@H]2C[C@H](O)[C@@H](CO)O2)c(=O)n1 [decitabine, 5-Aza-2′-deoxycytidine]
[1]; FDR <5%
  number of genes downregulated: 79 genes
  number of genes significantly upregulated: 48 genes
[1]; treated vs control
  Ratio 226719_at (CDNA FLJ34899 fis): 0.53
  Ratio 227755_at (CDNA FLJ42435 fis): 0.53
  Ratio 229969_at (Transcribed locus): 0.41
  Ratio 230570_at (Transcribed locus): 0.37
  Ratio 244623_at (Transcribed locus): 0.39
  Ratio ACRC (238825_at): 25.99
  Ratio ADFP (209122_at): 3.70
  Ratio AIG1 (223136_at): 0.41
  Ratio ALDH1L2 (231202_at): 0.45
  Ratio ARHGAP9 (224451_x_at): 0.38
  Ratio ATP1B1 (201243_s_at): 3.43
  Ratio C6orf48 (220755_s_at): 0.49
  Ratio C10orf57 (222545_s_at): 0.56
  Ratio C12orf5 (219099_at): 2.16
  Ratio C17orf27 (230000_at): 2.41
  Ratio C20orf118 (235964_x_at): 2.12
  Ratio CADPS2 (219572_at): 0.37
  Ratio CBS (212816_s_at): 0.41
  Ratio CBX4 (227558_at): 0.49
  Ratio CCPG1 (214152_at): 0.44
  Ratio COP1 (1552701_a_at): 2.34
  Ratio COPB2 (213500_at): 0.58
  Ratio CORO1A (209083_at): 2.38
  Ratio CT45-2 (235700_at): 30.39
  Ratio CTAGE5 (215930_s_at): 0.30
  Ratio CTBS (218923_at): 0.42
  Ratio DHCR7 (201791_s_at): 0.45
  Ratio DKFZP586A0522 (207761_s_at): 2.97
  Ratio DNAJB9 (1554462_a_at): 0.42
  Ratio DPYD (204646_at): 0.48
  Ratio DYRK4 (212954_at): 0.42
  Ratio EAF2 (219551_at): 0.46
  Ratio EIF2C2 (222294_s_at): 0.52
  Ratio EIF2S2 (208725_at): 0.46
  Ratio ELF4 (31845_at): 1.75
  Ratio ELL2 (226982_at): 0.45
  Ratio EPSTI1 (227609_at): 1.99
  Ratio ERN1 (235745_at): 0.35
  Ratio FKBP11 (219118_at): 0.38
  Ratio FLJ22028 (219802_at): 0.44
  Ratio FNDC3A (202304_at): 0.40
  Ratio G1P2 (205483_s_at): 2.77
  Ratio GALNT3 (203397_s_at): 0.65
  Ratio GLS (203157_s_at): 0.42
  Ratio GNG7 (228831_s_at): 0.33
  Ratio GOLPH3L (218361_at): 0.45
  Ratio GSK3B (226183_at): 0.49
  Ratio GSN (200696_s_at): 3.97
  Ratio H2-ALPHA (216323_x_at): 2.56
  Ratio HBS1L (209314_s_at): 0.53
  Ratio HEXIM1 (202814_s_at): 2.18
  Ratio HIST1H2BG (210387_at): 2.00
  Ratio HLA-DPA1 (211990_at): 1.70
  Ratio HN1 (217755_at): 2.17
  Ratio ID2 (201565_s_at): 2.76
  Ratio IDH1 (1555037_a_at): 0.53
  Ratio IER3 (201631_s_at): 3.97
  Ratio IFI27 (202411_at): 2.84
  Ratio IFI35 (209417_s_at): 1.93
  Ratio IFRD1 (202146_at): 0.51
  Ratio IGF1 (209541_at): 0.43
  Ratio IL21R (221658_s_at): 0.50
  Ratio INHBE (210587_at): 0.55
  Ratio INSIG1 (201625_s_at): 0.34
  Ratio ITGB7 (205718_at): 2.11
  Ratio KIAA0776 (212633_at): 0.49
  Ratio KIAA1509 (215343_at): 2.21
  Ratio KIF21B (204411_at): 0.53
  Ratio LOC220930 (229090_at): 0.45
  Ratio LRP16 (219188_s_at): 0.36
  Ratio MAGEA9 (210437_at): 1.68
  Ratio MAN1A1 (221760_at): 0.43
  Ratio MANEA (222805_at): 0.51
  Ratio MGC15875 (232488_at): 0.55
  Ratio MIRN21 (224917_at): 1.99
  Ratio MLLT11 (211071_s_at): 2.53
  Ratio MTHFD1L (225520_at): 0.41
  Ratio MUC1 (207847_s_at): 2.92
  Ratio MX1 (202086_at): 1.73
  Ratio MYLIP (223129_x_at): 2.00
  Ratio NFE2L1 (214179_s_at): 0.59
  Ratio NMES1 (223484_at): 23.96
  Ratio NMI (203964_at): 1.86
  Ratio NQO1 (201468_s_at): 2.15
  Ratio OAS1 (205552_s_at): 1.65
  Ratio OPN1SW (229549_at): 0.40
  Ratio PARP12 (218543_s_at): 1.92
  Ratio PCK2 (202847_at): 0.47
  Ratio PGM3 (221788_at): 0.49
  Ratio PHGDH (201397_at): 0.36
  Ratio PLAC1 (219702_at): 0.42
  Ratio PPAPDC1B (223569_at): 0.42
  Ratio PSCDBP (209606_at): 0.48
  Ratio PSPH (205194_at): 0.38
  Ratio RECQL (213878_at): 0.44
  Ratio RPL37 (224763_at): 0.35
  Ratio SAMD9 (228531_at): 2.06
  Ratio SCD (200831_s_at): 0.39
  Ratio SEC24D (202375_at): 0.31
  Ratio SEC63 (201915_at): 0.51
  Ratio SEL1L (202061_s_at): 0.56
  Ratio SESN2 (223195_s_at): 0.47
  Ratio SFN (33322_i_at): 4.34
  Ratio SLAMF7 (222838_at): 0.51
  Ratio SLC1A4 (209610_s_at): 0.54
  Ratio SLC1A5 (208916_at): 0.40
  Ratio SLC7A11 (209921_at): 0.41
  Ratio SNTB1 (226438_at): 0.36
  Ratio SP110 (208012_x_at): 2.11
  Ratio SSR3 (217790_s_at): 0.40
  Ratio STAT1 (209969_s_at): 2.55
  Ratio STCH (202558_s_at): 0.47
  Ratio STK17A (202693_s_at): 2.52
  Ratio SULT1A3 (210580_x_at): 2.52
  Ratio TBC1D16 (222116_s_at): 0.70
  Ratio TKTL1 (214183_s_at): 85.24
  Ratio TMEM39A (222690_s_at): 0.46
  Ratio TMEM49 (1569003_at): 2.33
  Ratio TPST2 (204079_at): 2.20
  Ratio TRIB3 (218145_at): 0.41
  Ratio TSC22D3 (208763_s_at): 0.53
  Ratio TUBA2 (210527_x_at): 2.50
  Ratio TUBA3 (209118_s_at): 2.23
  Ratio TUBB2 (204141_at): 5.07
  Ratio TUBE1 (226181_at): 0.38
  Ratio ZNF275 (225382_at): 0.35
  Ratio ZNF706 (227132_at): 0.49
[2]; [4]
  viability at 3 days, 0.5 μM: 91 ± 2%
  viability at 7 days, 0.5 μM: 86 ± 4%
[2]; [5]
  viability at 3 days, 0.5 μM: 65 ± 5%
  viability at 7 days, 0.5 μM: 69 ± 6%
[2]; [6]
  viability at 3 days, 0.5 μM: 90 ± 1%
  viability at 7 days, 0.5 μM: 90 ± 1%
[2]; [7]
  viability at 3 days, 0.5 μM: 90 ± 2%
  viability at 7 days, 0.5 μM: 85 ± 5%
[2]; [8]
  viability at 3 days, 0.5 μM: 91 ± 3%
  viability at 7 days, 0.5 μM: 83 ± 5%
[3]
  effect on myeloma cell viability: did not affect myeloma cell viability
